Experimental data published in patent EP0539086B1, “Condensed pyrimidine derivatives and their use as angiotensine II antagonists” (AMERICAN HOME PRODUCTS CORPORATION, priority 1991, dated 1993).

System: A II-infused rat
Assay: A II-infused rat model (antihypertensive action)
Assay type: in vivo
Conditions: 3 mg/kg id, average, four hours post-administration, anesthetized ganglion-blocked rats with A II infusion
Protocol: In accordance with their ability to antagonize angiotensin II, the compounds of this invention show antihypertensive action in the following A II-infused rat model. Procedure: Rats are anesthetized with Dial-Urethane (0.60 mL/kg, ip) and the trachea cannulated with PR 240. Either one femoral artery and both femoral veins or the carotid artery and the corresponding jugular vein are cannulated with PE 50. If the jugular vein is cannulated, two cannulas are placed in the one vein. The initial portion of the duodenum (just distal to the stomach) is cannulated with PE 50 via a small midline incision. Arterial pressure and heart rate are measured from the arterial cannula. Ten to 15 min are allowed following surgery for stabilization of arterial pressure. Ganglion blockade is then produced by intravenous administration of mecamylamine at 3 mg/kg (1 mL/kg of a 3 mg/mL solution). Ganglion blockade causes a fall in arterial pressure of about 50 mmHg. Mecamylamine is given every 90 min throughout the remainder of the experiment. An A II infusion is then begun into the other venous cannula at 0.25 µg/kg min (at 9.6 µL/min). The A II infusion returns arterial pressure to or slightly above the control level. Once arterial pressure has stabilized with the A II infusion, baseline values for mean arterial pressure (MAP) and heart rate are taken. […]

Cc1nc(C)c2c(n1)N(Cc1ccc(-c3ccccc3-c3nnn[nH]3)cc1)C(=O)C2 [Example 1, 2,4-Dimethyl-5,7-dihydro-7-[[2'-(1H-tetrazol-5-yl)[1,1-bi-phenyl]-4-yl]methyl]-6H-pyrrolo[2,3-d]pyrimidin-6-one]
lowered the A II dependent blood pressure: 41%
